What is called Ki is the dissociation constant of the complex between target and ligand, obtained from inhibition or displacement. For orientation: Emax means the greatest response seen or fitted, relative to the assay's reference.

Experimental findings from patent publication US6465482B2, “Arylpiperazinyl-cyclohexyl indole derivatives for the treatment of depression” (Wyeth, priority 1999, dated 2002) are described below.

SMILES strings stand for the structures.

The target of one assay is T1, serotonin transporter (Rattus norvegicus, UniProt P31652).
T1 construct: frontal cortical membranes prepared from male Sprague-Dawley rats; from tissue; host or cells: rat frontal cortex membranes
T1 sequence (P31652 whole entry): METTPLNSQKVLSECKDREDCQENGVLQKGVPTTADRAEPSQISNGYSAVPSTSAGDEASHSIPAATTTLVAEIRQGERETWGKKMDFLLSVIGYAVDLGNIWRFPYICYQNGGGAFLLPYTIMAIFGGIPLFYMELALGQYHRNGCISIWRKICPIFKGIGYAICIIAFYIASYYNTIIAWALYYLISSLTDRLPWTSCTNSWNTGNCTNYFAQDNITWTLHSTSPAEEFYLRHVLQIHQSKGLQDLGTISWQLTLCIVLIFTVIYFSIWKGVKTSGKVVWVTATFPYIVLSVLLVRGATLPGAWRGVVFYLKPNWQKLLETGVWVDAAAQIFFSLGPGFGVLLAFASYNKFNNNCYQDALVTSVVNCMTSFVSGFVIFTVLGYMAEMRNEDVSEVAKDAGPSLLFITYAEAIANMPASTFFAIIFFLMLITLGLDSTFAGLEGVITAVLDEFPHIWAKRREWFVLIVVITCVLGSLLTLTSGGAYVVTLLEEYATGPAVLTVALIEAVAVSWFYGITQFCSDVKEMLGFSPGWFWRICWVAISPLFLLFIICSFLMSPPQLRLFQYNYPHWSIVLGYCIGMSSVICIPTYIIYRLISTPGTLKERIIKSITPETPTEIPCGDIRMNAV
In words: serotonin transporter affinity, 3H-paroxetine binding, frontal cortical membranes. The conditions noted are these: 3H-paroxetine 0.1 nM; read-out: ST (Ki, nM,). How it is done: A protocol similar to that used by Cheetham et al., Neuropharmacol. […] Briefly, frontal cortical membranes prepared from male Sprague-Dawley rats were incubated with ^3H-paroxetine (0.1 nM) for 60 minutes at 25° C. […] All reactions are terminated by the addition of ice cold Tris buffer followed by rapid filtration using a Tom Tech filtration device to separate bound from free ^3H-paroxetine.

Assay [1] has as its target T2, human 5-HT1A receptor subtype (5-HT1A CHO cells) (Homo sapiens, UniProt P08908).
T2 construct: expressed in transfected cells
T2 sequence (P08908 1-422): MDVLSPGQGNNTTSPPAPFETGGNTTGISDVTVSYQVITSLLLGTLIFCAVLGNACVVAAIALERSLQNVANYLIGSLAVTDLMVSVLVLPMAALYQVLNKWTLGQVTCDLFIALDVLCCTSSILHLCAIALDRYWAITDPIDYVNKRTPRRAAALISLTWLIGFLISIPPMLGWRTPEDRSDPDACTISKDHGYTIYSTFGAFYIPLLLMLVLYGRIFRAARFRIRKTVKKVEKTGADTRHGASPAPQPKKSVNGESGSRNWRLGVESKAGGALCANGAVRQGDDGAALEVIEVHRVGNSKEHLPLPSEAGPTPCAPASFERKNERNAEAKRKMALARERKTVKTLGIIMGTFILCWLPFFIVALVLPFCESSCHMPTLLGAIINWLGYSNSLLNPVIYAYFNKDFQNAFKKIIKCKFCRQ
Nature of the assay: forskolin-stimulated cAMP formation (cAMP SPA assay). It is filed as cell-based. The conditions noted are these: forskolin 1 uM. The procedure: (§1) The PCR cloning of the human 5-HT1A receptor subtype from a human genomic library has been described previously Chanda et al., Mol. Pharmacol., 43:516 (1993). A stable Chinese hamster ovary cell line expressing the human 5-HT1A receptor subtype (5-HT1A.CH2O cells) was employed throughout this study. Cells were maintained in DMEM supplemented with 10% fetal calf serum, non-essential amino acids and penicillin/streptomycin.
The following assays were performed by incubating the cells with DMEM containing 25 mM HEPES, 5 mM theophylline and 10 μM pargyline for a period of 20 minutes at 37° C. Functional activity was assessed by treating the cells with forskolin (1 uM final concentration) followed immediately by test compound (6 concentrations) for an additional 10 minutes at 37° C. In separate experiments, 6 concentrations of antagonist were preincubated for 20 minutes prior to the addition of 10 nM 8-OH-DPAT and forskolin. The reaction was terminated by removal of the media and addition of 0.5 ml ice cold assay buffer. Plates were stored at −20° C. prior to assessment of cAMP formation by a cAMP SPA assay (Amersham).

Assay [2] concerns the target T3, human 5-HT1A receptor subtype (Homo sapiens, UniProt P08908).
T3 construct: expressed in transfected cells
T3 sequence (P08908 1-422): T2 sequence (P08908 1-422)
Nature of the assay: 5-HT1A receptor binding, [3H]8-OH-DPAT, CHO cell membranes. The following applies: [3H]8-OH-DPAT 1.5 nM. The procedure: as §1
Cells were grown to 95-100% confluency as a monolayer before membranes were harvested for binding studies. Cells were gently scraped from the culture plates, transferred to centrifuge tubes, and washed twice by centrifugation (2000 rpm for 10 min., 4° C.) in buffer (50 mM Tris; pH 7.5). The resulting pellets were aliquoted and placed at −80° C. On the day of assay, the cells were thawed on ice, and resuspended in buffer. Studies were conducted using [^3H]8-OH-DPAT as the radioligand. The binding assay was performed in 96 well microtiter plates in a final total volume of 250 μL of buffer. Competition experiments were performed by using 7 concentrations of unlabelled drug and a final ligand concentration of 1.5 nM. Non-specific binding was determined in the presence of 10 μM 5HT. Saturation analysis was conducted by using [^3H]8-OH-DPAT at concentaritions ranging from 0.3-30 nm Following a 30 minute incubation at room temperature, the reaction was terminated by the addition of ice cold buffer and rapid filtration using a M-96 Brandel Cell Harvester (Gaithersburg, Md.) through a GF/B filter presoaked for 30 minutes in 0.5% polyethylenenimine.

For assay [3], the target named is T4, 5-HT1A cloned receptor membrane fragments (Homo sapiens, UniProt P08908).
T4 construct: expressed in transfected cells
T4 sequence (P08908 1-422): T2 sequence (P08908 1-422)
In words: [35S]-GTPγS binding assay. It is filed as biochemical. The conditions noted are these: relative to excess 8-OH-DPAT maximum agonist response. The procedure:
The [^35S]-GTPγS biding assay was similar to that used by Lazarenno and Birdsall, Br. J. Pharmacol. 109:1120 (1993). Briefly, 5-HT1A cloned receptor membrane fragments (as used for 5-HT1A receptor binding assays were stored at −70° C. unit needed. When needed, membranes were rapidly thawed, centrifuged at […] for 10 minutes and resuspended at 4° C. for 10 minutes in assay buffer (25 mM HEPES, 3 mM MgCl2, 100 mM NaCl, 1 mM EDTA, 10 uM GDP, […], pH 8.0). These membranes were then incubated for 30 minutes at 30+ C. with [^35S]GTPgS (1 nM) in the presence of vehicle, test compound (one to eight concentrations), or excess 8-OH-DPAT to define maximum agonist response. All reactions are terminated by the addition of ice cold Tris buffer followed by rapid filtration using a Tom Tech® filtration device to separate bound from free [^35S]GTPgS. Agonists produce an increase in the amount of [^35S]GTPgS bound whereas antagonists produce no increase in binding. Bound radioactivity was counted and analyzed as above.

`N#Cc1ccc2[nH]cc([C@H]3CC[C@H](N4CCN(c5cccc6[nH]ccc56)CC4)CC3)c2c1` [Example 7b, 3-{4-[(1,4-trans)-4-(1H-Indol-4-yl)-piperazinyl-1-yl]cyclohexyl}-1H-indole-5-carbonitrile]: the inhibition constant (Ki) on serotonin transporter worked out at 4.19 nM. The Emax in assay [1] amounted to 83%.
Regarding `c1cc(N2CCN([C@H]3CC[C@@H](c4c[nH]c5ncccc54)CC3)CC2)c2cc[nH]c2c1` [Example 10a, 3-{(1,4-cis)-4-[4-(1H-Indole-4-yl)-piperazin-1-yl]-cyclohexyl}-1H-pyrrolo[2,3-b]pyridine], the Ki in assay [2] was found to be 15.8 nM. Also, in assay [1], the Emax was 0%.
As to `Fc1ccc2[nH]cc([C@H]3CC[C@@H](N4CCN(c5cccc6c5OCCO6)CC4)CC3)c2c1` [Example 24a, 3-{(1,4-cis)-4-[4-(2,3-Dihydro-benzo[1,4]dioxin-5-yl)-piperazin-1-yl]-cyclohexyl}-5-fluoro-1H-indole], the Ki on serotonin transporter turned out to be 6.9 nM; in assay [2], 65.7 nM. Also, the Emax in assay [1] stood at 81%.
In the case of `Fc1ccc2[nH]cc([C@H]3CC[C@H](N4CCN(c5cccc6c5OCCO6)CC4)CC3)c2c1` [Example 24b, 3-{(1,4-trans)-4-[4-(2,3-Dihydro-benzo[1,4]dioxin-5-yl)-piperazin-1-yl]-cyclohexyl}-5-fluoro-1H-indole], the Ki turned out to be 36 nM on serotonin transporter and 11.3 nM in assay [2].
Turning to `Fc1ccc2c(c1)[nH]cc2[C@H]1CC[C@@H](N2CCN(c3cccc4c3OCCO4)CC2)CC1` [Example 25a, 3-{(1,4-cis)-4-[4-(2,3-Dihydro-benzo[1,4]dioxin-5-yl)-piperazin-1-yl]-cyclohexyl}-6-fluoro-1H-indole], the Ki at serotonin transporter amounted to 63 nM; in assay [2] it was 67.7 nM. Moreover, the Emax in assay [1] came out at 0%.
In the case of `Fc1ccc2c(c1)[nH]cc2[C@H]1CC[C@H](N2CCN(c3cccc4c3OCCO4)CC2)CC1` [Example 25b, 3-{(1,4-trans)-4-[4-(2,3-Dihydro-benzo[1,4]dioxin-5-yl)-piperazin-1-yl]-cyclohexyl}-6-fluoro-1H-indole], the Ki at serotonin transporter is 58 nM; in assay [2], 9.66 nM. For the same compound, in assay [3], the Emax came out at 46%.
Turning to `N#Cc1ccc2[nH]cc([C@H]3CC[C@H](N4CCN(c5cccc6c5OCCO6)CC4)CC3)c2c1` [Example 26b, 3-{(1,4-trans)-4-[4-(2,3-Dihydro-benzo[1,4]dioxin-5-yl)-piperazin-1-yl]-cyclohexyl}-1H-indole-5-carbonitrile], the Ki worked out at 23 nM at serotonin transporter and 8.5 nM in assay [2]. In assay [3], this compound returned an Emax of 39%.
Regarding `Cn1cc([C@H]2CC[C@@H](N3CCN(c4cccc5cccnc45)CC3)CC2)c2cc(F)ccc21` [Example 28, 8-{4-(1,4-cis)-4-[4-(5-Fluoro-1-methyl-1H-indol-3-yl)-cyclohexyl]-piperazin-1-yl}-quinoline], the values for the Ki (on serotonin transporter; in assay [2]) were 2.02 nM and 25.1 nM, respectively.
Regarding `N#Cc1ccc2[nH]cc([C@H]3CC[C@@H](N4CCN(c5cccc6cccnc56)CC4)CC3)c2c1` [Example 29a, 3-[(1,4-cis)-4-(4-Quinolin-8-yl-piperazin-1-yl)-cyclohexyl]-1H-indole-5-carbonitrile], at serotonin transporter, the Ki was found to be 2.25 nM. The compound further had an Emax in assay [1] of 0%.
On to `N#Cc1ccc2[nH]cc([C@H]3CC[C@H](N4CCN(c5cccc6cccnc56)CC4)CC3)c2c1` [Example 29b, 3-[(1,4-trans)-4-(4-Quinolin-8-yl-piperazin-1-yl)-cyclohexyl]-1H-indole-5-carbonitrile], for which the Emax in assay [3] came to 70%.
As for `Cn1cc([C@H]2CC[C@@H](N3CCN(c4cccc5cccnc45)CC3)CC2)c2cc(C#N)ccc21` [Example 30, 1-Methyl-3-[(1,4-cis)-4-(4-quinolin-8-yl-piperazin-1-yl)-cyclohexyl]-1H-indole-5-carbonitrile], the Ki at serotonin transporter amounted to 1.25 nM; in assay [2], 24.5 nM. The compound further showed an Emax in assay [1] of 95%.
Consider `Fc1cc2c(c(N3CCN([C@H]4CC[C@@H](c5c[nH]c6ccc(F)cc65)CC4)CC3)c1)OCCC2` [Example 31a, 5-Fluoro-3-{(1,4-cis)-4-[4-(6-fuoro-chroman-8-yl)-piperazin-1-yl]-cyclohexyl}-1H-indole], for which the Ki stood at 13 nM at serotonin transporter and 142 nM in assay [2].
Turning to `Fc1cc2c(c(N3CCN([C@H]4CC[C@@H](c5c[nH]c6ccc(F)cc65)CC4)CC3)c1)OCC2` [Example 32a, 5-Fluoro-3-{(1,4-cis)-4-[4-(5-fluoro-2,3-dihydro-benzofuran-7-yl)-piperazin-1-yl]-cyclohexyl}-1H-indole], the Ki stood at 14 nM on serotonin transporter and 246 nM in assay [2].
Take `N#Cc1ccc2[nH]cc([C@H]3CC[C@@H](N4CCN(c5cc(F)cc6c5OCC6)CC4)CC3)c2c1` [Example 33a, 3-{(1,4-cis)-4-[4-(5-Fluoro-2,3-dihydro-benzofuran-7-yl)-piperazin-1-yl]-cyclohexyl}-1H-indole-5-carbonitrile]: the Ki was found to be 1.9 nM on serotonin transporter and 98.9 nM in assay [2].
For the compound `N#Cc1ccc2[nH]cc([C@H]3CC[C@H](N4CCN(c5cc(F)cc6c5OCC6)CC4)CC3)c2c1` [Example 33b, 3-{(1,4-trans)-4-[4-(5-Fluoro-2,3-dihydro-benzofuran-7-yl)-piperazin-1-yl]-cyclohexyl}-1H-indole-5-carbonitrile], the Ki came to 45 nM at serotonin transporter and 19.2 nM in assay [2].
For `Cn1cc([C@H]2CC[C@@H](N3CCN(c4cc(F)cc5c4OCC5)CC3)CC2)c2cc(C#N)ccc21` [Example 33c, 3-{(1,4-cis)-4-[4-(5-Fluoro-2,3-dihydro-benzofuran-7-yl)-piperazin-1-yl]-cyclohexyl}-1-methyl-1H-indole-5-carbonitrile], the Ki on serotonin transporter is 7.1 nM; in assay [2] it was 431 nM.
For the compound `N#Cc1ccc2[nH]cc([C@H]3CC[C@@H](N4CCN(c5cccc6ccoc56)CC4)CC3)c2c1` [Example 34a], the Ki is 1.49 nM at serotonin transporter and 185 nM in assay [2].
`N#Cc1ccc2[nH]cc([C@H]3CC[C@H](N4CCN(c5cccc6ccoc56)CC4)CC3)c2c1` [Example 34b]: the Ki on serotonin transporter is 17 nM; in assay [2], 8.37 nM.
As for `Cn1cc([C@H]2CC[C@@H](N3CCN(c4cccc5[nH]ccc45)CC3)CC2)c2cc(F)ccc21` [Example 38, 5-Fluoro-3-{cis-4-[4-(1H-indol-4-yl)-piperazinyl]-cyclohexyl}-1-methyl-1H-indole], the inhibition constant (Ki) at serotonin transporter worked out at 7.22 nM; in assay [2] it was 124 nM.
In the case of `COc1cc(N2CCN([C@H]3CC[C@@H](c4c[nH]c5ccc(C#N)cc54)CC3)CC2)c2ncccc2c1` [Example 44c, 3-{(1,4-cis)-4-[4-(6-Methoxy-quinolin-8-yl)-piperazin-1-yl]-cyclohexyl}-1H-indole-5-carbonitrile], the Ki on serotonin transporter was determined as 1.5 nM; in assay [2], 21 nM.
